In brackets after ≈: the same amount, converted by molar mass. Read-outs that look alike come from different tables or passages of the source.
Key:
HIV-1 (RF) in MT-2 cells = test: microbe, parasite or virus in culture; type: cell-based
Procedure, shortened: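 Read-out: gag and pol viral RNA captured by 5′-biotinylated oligonucleotides on streptavidin-coated wells, detected with alkaline phosphatase-linked reporter oligonucleotides, calibrated against BH10 in vitro transcripts. Virus stocks (RF, MN, IIIB) come from H9 cultures; MT-2 host cells kept in RPMI 1640, 5% FCS.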

[1] = molecular target: single-chain tethered dimer of HIV protease (Human immunodeficiency virus 1, UniProt P04585); test: biochemical; type: biochemical; design: fused on or other part: A second copy of the same protease unit is joined to the first by a short peptide tether, giving one polypeptide
[2] = Human immunodeficiency virus 1, MT2, 48 h, Table 2d, HIV RNA assay, read-out: IC90
[3] = read-out: HPLC K1, Table 2d, HIV protease inhibition, HPLC method
[4] = Table 2d, HIV protease inhibition, HPLC method, read-out: HPLC K1
[5] = read-out: HPLC K1, Table 2d, class symbols
[6] = Table 2d, class symbols, read-out: HPLC K1
[7] = Human immunodeficiency virus 1, MT2, 48 h, Table 2d, class symbols, read-out: IC90

N#Cc1cccc(CN2C(=O)N(Cc3cccc(-c4cc[nH]n4)c3)C(Cc3ccccc3)C(O)C(O)C2Cc2ccccc2)c1 (stereo not drawn) [Example 15BV]
IC90 (HIV-1 (RF) in MT-2 cells; [2]): < 10 µg/mL
Ki [1, 3]: < 10 nM

COC(=O)c1cccc(CN2C(=O)N(Cc3cccc(C(=O)OC)c3)C(Cc3ccc(F)c(F)c3)C(O)C(O)C2Cc2ccc(F)c(F)c2)c1 (stereo not drawn) [20Y]
IC90 (HIV-1 (RF) in MT-2 cells; Table 2i): +++ (+++=<10 μg/mL)
Ki ([1]; Table 2i, read-out: HPLC Ki): < 10 nM

COC(=O)NCCCCCN1C(=O)N(CCCCCNC(=O)OC)C(Cc2ccccc2)C(O)C(O)C1Cc1ccccc1 (stereo not drawn) [15EQ]
IC90 (HIV-1 (RF) in MT-2 cells; Table 2d, HIV RNA assay): ++/+ (The ++/+ is used in the cases where an IC90 was determined to be >50 μg/mL)
Ki [1, 4]: 10 to 1000 nM

C=CCN1C(=O)N(CC=C)[C@H](Cc2ccccc2)[C@@H](O)[C@H](O)[C@H]1Cc1ccccc1 [Example 13N]
IC90 (HIV-1 (RF) in MT-2 cells; Human immunodeficiency virus 1, MT2, 48 h): 10 to 100 µg/mL (≈ 24.6 to 246 µM)
Ki [1, 5]: > 1000 nM

CN(C)P1(=O)N(Cc2ccc(CO)cc2)[C@H](Cc2ccccc2)[C@H](O)[C@@H](O)[C@@H](Cc2ccccc2)N1Cc1ccc(CO)cc1 (stereo partly drawn) [28I]
IC90 (HIV-1 (RF) in MT-2 cells; Table 2r): ++ (++=10 to 100 μg/mL)
Ki ([1]; Table 2r, read-out: Ki HPLC): 10 to 1000 nM

O=C1N(Cc2nccs2)C(Cc2ccccc2)C(O)C(O)C(Cc2ccccc2)N1Cc1nccs1 (stereo not drawn) [Example 13V]
IC90 (HIV-1 (RF) in MT-2 cells; Table 2d, class symbols): ++ (++=10 to 100 μg/mL)
Ki [1, 6]: 10 to 1000 nM

N#Cc1cccc(CN2C(=O)N(CCCCCO)C(Cc3ccccc3)C(O)C(O)C2Cc2ccccc2)c1 (stereo not drawn) [Example 15VX]
IC90 (HIV-1 (RF) in MT-2 cells; [7]): < 10 µg/mL
Ki [1, 5]: < 10 nM

CC(=NO)c1cccc(CN2C(Cc3ccccc3)C(O)C(O)C(Cc3ccccc3)N(Cc3cccc(C(C)=NO)c3)S2(=O)=O)c1 (stereo not drawn) [23U]
IC90 (HIV-1 (RF) in MT-2 cells; Table 2m): +++ (+++=<10 μg/mL)
Ki ([1]; Table 2m, read-out: HPLC Ki): < 10 nM

O=C1N(Cc2cccc(C(=O)C(F)(F)F)c2)C(Cc2ccccc2)C(O)C(O)C(Cc2ccccc2)N1Cc1cccc(C(=O)C(F)(F)F)c1 (stereo not drawn) [Example 15XM]
IC90 (HIV-1 (RF) in MT-2 cells; [2]): < 10 µg/mL
Ki [1, 3]: < 10 nM

CC(C)(C)OC(=O)NN=Cc1cccc(CN2C(=O)N(Cc3cccc(C=NNC(=O)OC(C)(C)C)c3)C(Cc3ccccc3)C(O)C(O)C2Cc2ccccc2)c1 (stereo not drawn) [15AL]
IC90 (HIV-1 (RF) in MT-2 cells; Table 2d, HIV RNA assay): +++ (+++=<10 μg/mL)
Ki [1, 4]: 10 to 1000 nM

O=S1(=O)N(Cc2ccc(O)cc2)C(Cc2ccccc2)C(O)C(O)C(Cc2ccccc2)N1Cc1ccc(O)cc1 (stereo not drawn) [23K]
IC90 (HIV-1 (RF) in MT-2 cells; Table 2m): +++ (+++=<10 μg/mL)
Ki ([1]; Table 2m, read-out: HPLC Ki): < 10 nM

CC(O)c1cccc(CN2C(=O)N(Cc3cccc(C(C)O)c3)C(Cc3ccccc3)C(O)C(O)C2Cc2ccccc2)c1 (stereo not drawn) [Example 9H]
IC90 (HIV-1 (RF) in MT-2 cells; [7]): < 10 µg/mL
Ki [1, 5]: 10 to 1000 nM

O=C1N(Cc2ccc(CO)cc2)C(Cc2ccccc2)C(O)C(O)C(Cc2ccccc2)N1Cc1ccc(CO)cc1 (stereo not drawn) [Example 13S]
IC90 (HIV-1 (RF) in MT-2 cells; Table 2d, class symbols): ++ (++=10 to 100 μg/mL)
Ki [1, 5]: 10 to 1000 nM

CC(O)c1cccc(CN2C(=O)N(Cc3cccc(C(C)O)c3)C(Cc3ccccc3)C(O)C(O)C2Cc2ccccc2)c1 (stereo not drawn) [15XD]
IC90 (HIV-1 (RF) in MT-2 cells; [2]): < 10 µg/mL
Ki [1, 3]: < 10 nM

O=C1NC(Cc2ccccc2)C(O)C(O)C(Cc2ccccc2)N1Cc1cccc(-c2cc[nH]n2)c1 (stereo not drawn) [Example 15BX]
IC90 (HIV-1 (RF) in MT-2 cells; [2]): < 10 µg/mL
Ki [1, 3]: < 10 nM

O=P1(Oc2ccccc2)N[C@H](Cc2ccccc2)[C@H](O)[C@@H](O)[C@@H](Cc2ccccc2)N1 (stereo partly drawn) [28A]
IC90 (HIV-1 (RF) in MT-2 cells; Table 2r): ++ (++=10 to 100 μg/mL)
Ki ([1]; Table 2r, read-out: Ki HPLC): > 1000 nM

N#CCc1cccc(CN2C(=O)N(Cc3cccc(CC#N)c3)C(Cc3ccccc3)C(O)C(O)C2Cc2ccccc2)c1 (stereo not drawn) [15DU]
IC90 (HIV-1 (RF) in MT-2 cells; [2]): < 10 µg/mL
Ki [1, 3]: 10 to 1000 nM

O=C1N(Cc2ccc(CO)cc2)C(Cc2ccccc2)C(O)C(O)C(Cc2ccccc2)N1Cc1ccccc1O (stereo not drawn) [15EA]
IC90 (HIV-1 (RF) in MT-2 cells; [2]): < 10 µg/mL
Ki [1, 3]: < 10 nM

O=C1N(Cc2cccc(C=NCCO)c2)C(Cc2ccccc2)C(O)C(O)C(Cc2ccccc2)N1Cc1cccc(C2NCCO2)c1 (stereo not drawn) [Example 9K]
IC90 (HIV-1 (RF) in MT-2 cells; Table 2d, class symbols): +++ (+++=<10 μg/mL)
Ki [1, 6]: 10 to 1000 nM

O=S1(=O)N(CCCCCO)C(Cc2ccccc2)C(O)C(O)C(Cc2ccccc2)N1Cc1ccc2ccccc2c1 (stereo not drawn) [23AF]
IC90 (HIV-1 (RF) in MT-2 cells; Table 2m): +++ (+++=<10 μg/mL)
Ki ([1]; Table 2m, read-out: HPLC Ki): < 10 nM

O=C1N(Cc2ccc3c(c2)CCNC3)C(Cc2ccccc2)C(O)C(O)C(Cc2ccccc2)N1Cc1ccc2c(c1)CCNC2 (stereo not drawn) [Example 13T]
IC90 (HIV-1 (RF) in MT-2 cells; Table 2d, class symbols): + (+=>100 μg/mL)
Ki [1, 6]: 10 to 1000 nM

O=C1N(CC2CC2)C(CCc2ccccc2)[C@@H](O)[C@@H](Cc2ccccc2)N1CC1CC1 (stereo partly drawn) [Example 8H]
IC90 (HIV-1 (RF) in MT-2 cells; Human immunodeficiency virus 1, MT2, Table 1e, read-out: IC90): < 10 µg/mL
Ki ([1]; read-out: Ki (HPLC), Table 1e, cells marked (HPLC)): < 10 nM

N#Cc1cccc(CN2C(=S)N(Cc3cccc(C#N)c3)C(Cc3ccccc3)C(O)C(O)C2Cc2ccccc2)c1 (stereo not drawn) [Example 27K]
IC90 (HIV-1 (RF) in MT-2 cells; Table 2q): +++ (+++=<10 μg/mL)
Ki ([1]; Table 2q, read-out: HPLC Ki): < 10 nM

NC(=NO)c1cccc(CN2C(=S)N(Cc3ccc(CO)cc3)C(Cc3ccccc3)C(O)C(O)C2Cc2ccccc2)c1 (stereo not drawn) [Example 27I]
IC90 (HIV-1 (RF) in MT-2 cells; Table 2q): +++ (+++=<10 μg/mL)
Ki ([1]; Table 2q, read-out: HPLC Ki): < 10 nM
